Measured values as given in PMC10444810, “Induction of open-form bile canaliculus formation by hepatocytes for evaluation of biliary drug excretion” (Communications Biology, 2023).
Several values for one entry are separate records, joined by “and”; a condition that tells them apart may be missing. Equal entries are not always repeated. Structures can show the parent of a compound that is named as a salt. Where two headings read alike, the source gives them in different places.

What was measured:
icHep = details: for intracellular amount on DFP treatment: not told
BSEP [1] = test system: BSEP; set-up: method as in PMID 23877105; details: SCHs; cited from earlier work
BSEP [2] = test system: BSEP
[3] = Reported human in vivo biliary excretion clearance and intrinsic clearance estimated from it (Eq. 4)
[4] = icHep permeation assay (sinusoidal to bile side) to estimate drug biliary excretion clearance; details: human
[5] = blood/plasma concentration ratio, cited from earlier work
[6] = test system: sandwich-cultured PXB-cells; details: human, 1 μM
[7] = cited from earlier work; for Observed in vivo CLbile: human
[8] = cited from earlier work
MRP2 [9] = molecular target: T1, MRP2 (Homo sapiens, UniProt Q92887); details: not told
OATP1B1 = molecular target: T2, OATP1B1 (Homo sapiens, UniProt Q9Y6L6)
T2 sequence (Q9Y6L6 1-691): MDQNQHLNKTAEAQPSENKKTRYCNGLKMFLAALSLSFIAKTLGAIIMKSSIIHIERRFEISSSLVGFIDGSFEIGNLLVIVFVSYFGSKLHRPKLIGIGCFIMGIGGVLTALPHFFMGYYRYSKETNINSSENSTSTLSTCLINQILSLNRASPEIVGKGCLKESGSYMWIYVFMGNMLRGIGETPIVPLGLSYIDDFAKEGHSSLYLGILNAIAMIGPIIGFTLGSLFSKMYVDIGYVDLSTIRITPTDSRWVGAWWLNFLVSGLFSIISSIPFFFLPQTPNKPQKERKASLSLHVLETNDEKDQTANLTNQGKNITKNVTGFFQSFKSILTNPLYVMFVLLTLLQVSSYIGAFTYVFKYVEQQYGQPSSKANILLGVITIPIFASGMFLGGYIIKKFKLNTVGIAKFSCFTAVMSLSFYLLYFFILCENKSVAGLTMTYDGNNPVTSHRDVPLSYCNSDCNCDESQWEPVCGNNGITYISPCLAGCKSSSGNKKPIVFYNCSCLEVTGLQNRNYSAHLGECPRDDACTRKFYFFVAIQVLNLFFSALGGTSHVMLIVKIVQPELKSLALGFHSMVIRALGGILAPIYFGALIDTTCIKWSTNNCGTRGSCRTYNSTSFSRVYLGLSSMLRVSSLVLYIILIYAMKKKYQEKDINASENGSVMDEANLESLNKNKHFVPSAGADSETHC

OCT1 = molecular target: T3, OCT1 (Homo sapiens, UniProt O15245); details: for Uptake / CLuptake: single wells; for CLuptake, Mean: mean of wells
T3 sequence (O15245 1-554): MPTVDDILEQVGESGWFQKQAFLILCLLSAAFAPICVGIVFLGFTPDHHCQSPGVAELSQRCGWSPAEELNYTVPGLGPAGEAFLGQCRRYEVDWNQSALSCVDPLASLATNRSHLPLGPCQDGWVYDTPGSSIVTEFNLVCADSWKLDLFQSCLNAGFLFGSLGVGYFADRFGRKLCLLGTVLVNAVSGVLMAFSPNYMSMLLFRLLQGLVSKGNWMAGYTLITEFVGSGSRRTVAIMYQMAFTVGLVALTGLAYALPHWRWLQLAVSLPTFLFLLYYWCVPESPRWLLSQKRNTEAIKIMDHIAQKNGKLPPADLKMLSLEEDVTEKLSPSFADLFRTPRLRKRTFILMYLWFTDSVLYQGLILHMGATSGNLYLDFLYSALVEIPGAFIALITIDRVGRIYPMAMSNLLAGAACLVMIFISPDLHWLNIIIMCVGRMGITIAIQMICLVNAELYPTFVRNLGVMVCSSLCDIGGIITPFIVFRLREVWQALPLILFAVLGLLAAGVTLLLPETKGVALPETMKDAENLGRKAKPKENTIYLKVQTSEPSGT

MRP2 [10] = molecular target: T1, MRP2; test: MRP2-mediated biliary transport of CDF (CDFDA permeation assay); details: benzbromarone 100 μM, icHep
BSEP [11] = details: cited from earlier work
[12] = estimated from observed CLbile with fp, Rb, Qh 1400 ml/min
[13] = estimated from observed in vivo CLbile with fp, Rb and Qh 1400 ml/min
[14] = Biliary excretion clearance, in vitro, observed, CLbile, int, icHep (HUM181001B), CLbile,app of icHep minus control cells
[15] = reported in vivo biliary excretion clearance
[16] = unbound fraction of the plasma protein
[17] = unbound fraction, reported value

T1 sequence (Q92887 whole entry): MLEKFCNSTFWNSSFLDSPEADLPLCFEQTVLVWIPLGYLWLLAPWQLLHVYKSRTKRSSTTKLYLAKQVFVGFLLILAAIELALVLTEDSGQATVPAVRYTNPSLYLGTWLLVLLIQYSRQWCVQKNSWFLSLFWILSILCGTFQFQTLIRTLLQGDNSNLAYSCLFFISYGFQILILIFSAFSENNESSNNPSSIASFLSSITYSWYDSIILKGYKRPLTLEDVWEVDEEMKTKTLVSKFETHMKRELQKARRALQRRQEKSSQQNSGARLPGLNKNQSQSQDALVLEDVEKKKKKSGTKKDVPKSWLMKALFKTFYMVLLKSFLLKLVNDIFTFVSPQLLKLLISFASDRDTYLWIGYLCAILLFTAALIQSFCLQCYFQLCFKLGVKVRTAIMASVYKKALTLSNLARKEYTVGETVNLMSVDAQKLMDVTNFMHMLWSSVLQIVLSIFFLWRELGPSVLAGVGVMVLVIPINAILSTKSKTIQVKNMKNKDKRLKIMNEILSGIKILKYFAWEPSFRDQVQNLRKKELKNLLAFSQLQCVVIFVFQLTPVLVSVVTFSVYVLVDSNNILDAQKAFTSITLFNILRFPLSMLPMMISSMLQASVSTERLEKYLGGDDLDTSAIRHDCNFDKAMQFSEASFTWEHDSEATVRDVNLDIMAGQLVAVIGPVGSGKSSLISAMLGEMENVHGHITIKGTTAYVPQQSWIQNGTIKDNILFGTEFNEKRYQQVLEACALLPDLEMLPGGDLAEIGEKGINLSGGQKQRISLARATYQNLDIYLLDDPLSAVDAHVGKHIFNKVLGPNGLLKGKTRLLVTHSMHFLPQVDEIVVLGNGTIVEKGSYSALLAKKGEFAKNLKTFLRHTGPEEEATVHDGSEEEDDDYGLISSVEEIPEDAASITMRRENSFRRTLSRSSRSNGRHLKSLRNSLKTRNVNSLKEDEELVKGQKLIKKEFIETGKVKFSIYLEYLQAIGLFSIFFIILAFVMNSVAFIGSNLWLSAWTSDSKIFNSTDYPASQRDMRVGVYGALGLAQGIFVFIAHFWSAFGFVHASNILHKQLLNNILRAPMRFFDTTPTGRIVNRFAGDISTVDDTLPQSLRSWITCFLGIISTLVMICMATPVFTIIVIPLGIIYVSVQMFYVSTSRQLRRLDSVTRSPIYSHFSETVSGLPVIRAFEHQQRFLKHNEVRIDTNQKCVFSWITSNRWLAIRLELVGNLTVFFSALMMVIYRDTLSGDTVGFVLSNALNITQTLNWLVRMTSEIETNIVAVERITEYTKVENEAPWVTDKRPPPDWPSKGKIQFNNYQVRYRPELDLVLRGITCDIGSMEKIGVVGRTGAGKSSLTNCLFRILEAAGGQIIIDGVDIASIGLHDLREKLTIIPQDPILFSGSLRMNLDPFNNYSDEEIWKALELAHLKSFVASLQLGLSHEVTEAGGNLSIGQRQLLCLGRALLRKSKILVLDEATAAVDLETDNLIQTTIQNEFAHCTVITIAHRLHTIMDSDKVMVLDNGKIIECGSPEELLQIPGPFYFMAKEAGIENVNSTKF

Compound	Observed in vivo CLbile, int [3, 12] [mL/min]	Observed in vivo CLbile, int [3, 13] [mL/min]	hepatocyte CLint at 1 μM [4] [µL/min/1e6 cells]	hepatocyte CLint at 1 μM [4, 14] [µL/min/1e6 cells]	Rb ([5]; reported value)	Rb [5]	Predicted in vivo CLbile, int, Mean ([6]; 2 min) [mL/min]	BEI (%) Mean ([6]; 5 min) [%]	Predicted in vivo CLbile, int, Mean ([6]; 5 min) [mL/min]	BEI (%) Mean ([6]; 10 min) [%]	Predicted in vivo CLbile, int, Mean ([6]; 10 min) [mL/min]	Predicted in vivo CLbile, int, Mean ([6]; 20 min) [mL/min]	Observed in vivo CLbile [7, 15] [mL/min]	Observed in vivo CLbile ([7]; reported value) [mL/min]	fp [8, 16]	fp [8, 17]	further results
CCOc1nc2cccc(C(=O)O)c2n1Cc1ccc(-c2ccccc2-c2nnn[nH]2)cc1 [CAN, candesartan]	–	–	–	–	–	–	–	–	–	–	–	–	–	–	–	–	intracellular amount on DFP treatment (icHep): decreased; BSEP inhibition (BSEP [1]): not
CCOc1nc2cccc(C(=O)OC(C)OC(=O)OC3CCCCC3)c2n1Cc1ccc(-c2ccccc2-c2nnn[nH]2)cc1 (stereo not drawn) [CIL, candesartan cilexetil]	–	–	–	–	–	–	–	–	–	–	–	–	–	–	–	–	effect on intracellular accumulation of taurocholate (icHep): increased; intracellular amount on DFP treatment (icHep): increased; effect on biliary excretion clearance of taurocholate (BSEP [2]): decreased; effect on biliary excretion clearance of BSEP substrate taurocholate (BSEP [2]; CIL (10 μM) alone, taurocholate 1 μM, 120 min): did not affect; BSEP inhibition (BSEP [1]): inhibited
CN/C(=N/CCSCc1nc[nH]c1C)NC#N [Cimetidine, cimetidine]	12.3	12.3	0.869 ± 0.0152	0.453 ± 0.163	0.97	0.97	2714	32.5	478	19.7	126	60.3	9.9	9.9	0.81	0.81	BEI (%) Mean ([6]; 2 min): 48.1%; BEI (%) Mean ([6]; 20 min): 19.6%; fp, unbound fraction of the plasma protein ([8]; reported value): 0.81[32]
C[C@]12CC[C@@H]3c4ccc(O)cc4CC[C@H]3[C@@H]1CC[C@@H]2O[C@@H]1O[C@H](C(=O)O)[C@@H](O)[C@H](O)[C@H]1O [E217βG]	–	–	–	–	–	–	–	–	–	–	–	–	–	–	–	–	permeability to the bile side in icHep compared to the control (MRP2 [9]): significantly increased; difference in OATP1B1 substrate uptake clearance between two donors (OATP1B1): 2.85 fold
CC[C@H]1OC(=O)[C@H](C)[C@@H](O[C@H]2C[C@@](C)(OC)[C@@H](O)[C@H](C)O2)[C@H](C)[C@@H](O[C@@H]2O[C@H](C)C[C@H](N(C)C)[C@H]2O)[C@](C)(O)C[C@@H](C)C(=O)[C@H](C)[C@@H](O)[C@]1(C)O [Erythromycin, erythromycin]	285	285	0.732 ± 0.0721	0.793 ± 0.0723	0.75	0.75	2262	22.5	289	30.0	238	310	80.3	80.3	0.305	0.305	BEI (%) Mean ([6]; 2 min): 46.3%; BEI (%) Mean ([6]; 20 min): 54.8%; Biliary excretion clearance, in vivo, observed, CLbile ([7]; in vivo): 80.3[36] ml/min; fp, unbound fraction of the plasma protein ([8]; plasma): 0.305[37]
CN(C)C(=N)N=C(N)N [Metformin]	–	–	–	–	–	–	–	–	–	–	–	–	–	–	–	–	Uptake (OCT1; icHep (HUM181001B), incubation time 0.5 min): 2.903 ul/106 cells and 3.372 ul/106 cells and 2.496 ul/106 cells and 3.301 ul/106 cells; Uptake (OCT1; icHep (HUM181001B), incubation time 1 min): 5.838 ul/106 cells and 5.176 ul/106 cells and 6.237 ul/106 cells and 6.072 ul/106 cells; Uptake (OCT1; icHep (HUM181001B), incubation time 2 min): 12.5578 ul/106 cells and 11.8508 ul/106 cells and 13.1191 ul/106 cells and 15.8618 ul/106 cells; Uptake (OCT1; icHep (HUM181001B), incubation time 5 min): 32.1771 ul/106 cells and 34.4238 ul/106 cells and 29.3661 ul/106 cells and 33.2229 ul/106 cells; CLuptake, Mean (OCT1; icHep (HUM181001B)): 7.52 ul/min/106 cells; CLuptake (OCT1; icHep (HUM181001B)): 6.72 ul/min/106 cells and 6.68 ul/min/106 cells and 6.88 ul/min/106 cells and 9.79 ul/min/106 cells; Uptake (OCT1; icHep (JFC), incubation time 0.5 min): 3.7065 ul/106 cells and 4.783 ul/106 cells and 4.1818 ul/106 cells and 4.442 ul/106 cells; Uptake (OCT1; icHep (JFC), incubation time 1 min): 7.468 ul/106 cells and 9.292 ul/106 cells and 7.7376 ul/106 cells and 10.2512 ul/106 cells; Uptake (OCT1; icHep (JFC), incubation time 2 min): 17.213 ul/106 cells and 18.5255 ul/106 cells and 16.0946 ul/106 cells and 17.048 ul/106 cells; Uptake (OCT1; icHep (JFC), incubation time 5 min): 50.6594 ul/106 cells and 43.7801 ul/106 cells and 38.495 ul/106 cells and 43.9119 ul/106 cells; CLuptake, Mean (OCT1; icHep (JFC)): 8.82 ul/min/106 cells; CLuptake (OCT1; icHep (JFC)): 7.5 ul/min/106 cells and 9.0 ul/min/106 cells and 7.1 ul/min/106 cells and 11.6 ul/min/106 cells
CN(Cc1cnc2nc(N)nc(N)c2n1)c1ccc(C(=O)N[C@@H](CCC(=O)O)C(=O)O)cc1 [Methotrexate, methotrexate]	90.0	90.0	1.11 ± 0.217	0.73 ± 0.268	0.79	0.79	700	14.8	179	18.9	126	172	39.9	39.9	0.46	0.46	fp, unbound fraction of the plasma protein ([8]; reported value): 0.46[40]
CC[C@]1(O)C[C@H]2CN(CCc3c([nH]c4ccccc34)[C@@](C(=O)OC)(c3cc4c(cc3OC)N(C=O)[C@H]3[C@@](O)(C(=O)OC)[C@H](OC(C)=O)[C@]5(CC)C=CCN6CC[C@]43[C@@H]65)C2)C1 [Vincristine, vincristine]	25.5	25.5	0.173 ± 0.052	0.128 ± 0.0438	1.2	1.2	329	16.5	199	26.3	190	168	12.9	12.9	0.51	0.51	BEI (%) Mean ([6]; 2 min): 11.7%; BEI (%) Mean ([6]; 20 min): 40.4%; fp, unbound fraction of the plasma protein ([8]; reported value): 0.51[47]
CCc1oc2ccccc2c1C(=O)c1cc(Br)c(O)c(Br)c1 [benzbromarone]	–	–	–	–	–	–	–	–	–	–	–	–	–	–	–	–	effect of MRP2 inhibitor on the increased appearance of CDF on the bile side (MRP2 [10]): reduced this increase to the same level as the control group
Cc1c(C)c2c(c(C)c1OS(=O)(=O)O)CCC(C)(COc1ccc(CC3SC(=O)NC3=O)cc1)O2 (stereo not drawn) [troglitazone sulfate]	–	–	–	–	–	–	–	–	–	–	–	–	–	–	–	–	IC50 (BSEP [11]): 4.2 µM
Cc1c(C)c2c(c(C)c1O)CCC(C)(COc1ccc(CC3SC(=O)NC3=O)cc1)O2 (stereo not drawn) [troglitazone]	–	–	–	–	–	–	–	–	–	–	–	–	–	–	–	–	IC50 (BSEP [11]): 2.3 µM
